US10407735B2, “Schlap-1 ncRNA and uses thereof” (THE REGENTS OF THE UNIVERSITY OF MICHIGAN, priority 2010, dated 2019)

What was measured:
[1] = test system: PCAT-14 expression in VCaP and LNCaP cells; experiment: Androgen treatment (R1881), ncRNA expression by qPCR; type: cell-based, human; details: 5 nM R1881, androgen responsive VCaP and LNCaP cells
Description: The benign immortalized prostate cell line RWPE as well as PC3, Du145, LNCaP, VCaP, 22Rv1, CWR22, C4-2B, NCI-660, MDA PCa 2b, WPMY-1, and LAPC-4 prostate cell lines were obtained from the American Type Culture Collection (Manassas, Va.). Benign non-immortalized prostate epithelial cells (PrEC) and prostate smooth muscle cells (PrSMC) were obtained from Lonza (Basel, Switzerland). Cell lines were maintained using standard media and conditions. For androgen treatment experiments, LNCaP and VCaP cells were grown in androgen depleted media lacking phenol red and supplemented with 10% charcoal-stripped serum and 1% penicillin-streptomycin. After 48 hours, cells were treated with 5 nM methyltrienolone (R1881, NEN Life Science Products) or an equivalent volume of ethanol. Cells were harvested for RNA at 6, 24, and 48 hours post-treatment. Prostate tissues were obtained from the radical prostatectomy series and Rapid Autopsy Program at the University of Michigan tissue core. These programs are part of the University of Michigan Prostate Cancer Specialized Program Of Research Excellence (S.P.O.R.E.). […]
Quantitative Real-time PCR (qPCR) was performed using Power SYBR Green Mastermix (Applied Biosystems, Foster City, Calif.) on an Applied Biosystems 7900HT Real-Time PCR System. […] Fold changes were calculated relative to GAPDH and normalized to the median value of the benign samples.

[2] = test system: Du145 prostate cancer cells
[3] = test system: RWPE benign prostate cells

SMILES | PCAT-14 expression [1] | sensitivity to PARP1 inhibitor (LNCAP prostate cells) | sensitivity to PARP1 inhibitor [2] | sensitivity to PARP1 inhibitor [3] | sensitivity to PARP1 inhibitor (MCF7 breast cancer cells)
C[C@]1(O)CC[C@H]2[C@@H]3CCC4=CC(=O)CCC4=C3C=C[C@@]21C [R1881, methyltrienolone] | induced |  |  |  | 
C[C@]1(c2nc3c(C(N)=O)cccc3[nH]2)CCCN1 [ABT-888] |  | reduces sensitivity | increases sensitivity | increases sensitivity | does not recapitulate this effect
